Measurements published in ChEMBL document CHEMBL1201862, “PubChem BioAssay data set” (2004).
The source made the active and inactive calls.

Legend:
[1] = P. falciparum late gametocyte killing, dose response, luminescence (AID 1117278); type: functional, cell-based;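 also: gametocytes exposed to compound for 24 hours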
[2] = Jurkat T cell cytotoxicity, dose response, cytotoxicity control for P. falciparum gametocyte viability project, luminescence (AID 1117277); type: functional, cell-based;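 also: potency reflects loss of cellular ATP meaning fewer viable cells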
Kallikrein-7 = Kallikrein-7 (Homo sapiens, UniProt P49862); test: Fluorescence Intensity-based biochemical primary high throughput dose response assay to identify activators of kallikrein-7 (K7) zymogen.
Chain of Kallikrein-7 (P49862 whole entry): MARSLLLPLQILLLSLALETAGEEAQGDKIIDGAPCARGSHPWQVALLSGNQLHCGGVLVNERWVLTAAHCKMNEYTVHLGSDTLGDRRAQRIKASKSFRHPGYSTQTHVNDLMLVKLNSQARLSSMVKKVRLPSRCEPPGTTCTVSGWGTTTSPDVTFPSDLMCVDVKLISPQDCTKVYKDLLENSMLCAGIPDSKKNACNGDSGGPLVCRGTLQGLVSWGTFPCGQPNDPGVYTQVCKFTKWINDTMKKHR

[3] = Luminescence Cell-Based Dose Retest to Confirm Inhibitors of Cancer Stem Cells. [Related pubchem assays (depositor defined):AID2717, AID2721]; type: functional; settings: Homo sapiens
[4] = biological target: T1, Long-chain-fatty-acid--AMP ligase FadD28 (Mycobacterium tuberculosis, UniProt P9WQ59); test: Fluorescence polarization aasay to screen for inhibitors that compete for the binding of FadD28 to a bisubstrate Measured in Biochemical System Using Plate Reader - 2147-01_Inhibitor_Dose_CherryPick_Activity.; type: functional, Mycobacterium tuberculosis H37Rv
T1 sequence (P9WQ59 whole entry): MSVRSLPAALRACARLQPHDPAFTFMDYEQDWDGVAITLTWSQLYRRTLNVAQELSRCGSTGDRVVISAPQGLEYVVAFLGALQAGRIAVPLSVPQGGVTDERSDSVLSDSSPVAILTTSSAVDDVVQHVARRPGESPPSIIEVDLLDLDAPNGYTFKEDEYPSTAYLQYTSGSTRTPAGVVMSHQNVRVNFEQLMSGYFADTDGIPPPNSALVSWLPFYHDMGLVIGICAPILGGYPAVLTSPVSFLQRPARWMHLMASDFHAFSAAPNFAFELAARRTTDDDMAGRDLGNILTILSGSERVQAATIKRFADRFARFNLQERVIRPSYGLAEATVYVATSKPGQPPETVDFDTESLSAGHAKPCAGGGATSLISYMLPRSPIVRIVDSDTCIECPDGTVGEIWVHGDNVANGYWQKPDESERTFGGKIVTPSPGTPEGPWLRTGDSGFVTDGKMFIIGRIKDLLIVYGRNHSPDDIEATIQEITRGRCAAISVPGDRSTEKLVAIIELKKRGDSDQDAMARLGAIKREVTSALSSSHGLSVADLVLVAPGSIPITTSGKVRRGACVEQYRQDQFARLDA

[5] = biological target: T2, Carboxy-terminal domain RNA polymerase II polypeptide A small phosphatase 1 (Homo sapiens, UniProt Q9GZU7); test: inhibitors of CTDSP1, concentration-response testing, biochemical assay, absorbance-based, actives from ultra-high-throughput screening (AID 540297); type: functional
T2 sequence (Q9GZU7 whole entry): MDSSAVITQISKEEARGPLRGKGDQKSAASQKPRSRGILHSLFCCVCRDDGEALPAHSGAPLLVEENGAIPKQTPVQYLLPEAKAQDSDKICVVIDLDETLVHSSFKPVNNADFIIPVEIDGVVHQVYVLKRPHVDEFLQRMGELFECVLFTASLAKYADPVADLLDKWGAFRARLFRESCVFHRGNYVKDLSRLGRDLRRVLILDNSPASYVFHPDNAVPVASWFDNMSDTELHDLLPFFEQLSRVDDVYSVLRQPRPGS

Protein Tat = biological target: T3, Protein Tat (Human immunodeficiency virus type 1 group M subtype B (isolate HXB2)(HIV-1), UniProt P04608); type: functional;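 also: tat binding to TAR RNA read out by fluorescence polarization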
T3 sequence (P04608 whole entry): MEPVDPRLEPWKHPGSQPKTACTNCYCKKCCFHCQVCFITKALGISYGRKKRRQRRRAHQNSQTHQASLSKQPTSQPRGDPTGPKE

H9c2 = test: cells; type: functional, cell-based; settings: Rattus norvegicus, H9c2, Myocardium
[6] = biological target: T4, Corticotropin-releasing factor receptor 2/Corticotropin-releasing factor-binding protein (Homo sapiens, UniProt P24387+Q13324); test: Dose Response confirmation of uHTS hits for small molecule antagonists of the CRF-binding protein and CRF-R2 receptor complex.; type: functional; settings: read-out: IC50_Mean
T4 sequence (Q13324 whole entry): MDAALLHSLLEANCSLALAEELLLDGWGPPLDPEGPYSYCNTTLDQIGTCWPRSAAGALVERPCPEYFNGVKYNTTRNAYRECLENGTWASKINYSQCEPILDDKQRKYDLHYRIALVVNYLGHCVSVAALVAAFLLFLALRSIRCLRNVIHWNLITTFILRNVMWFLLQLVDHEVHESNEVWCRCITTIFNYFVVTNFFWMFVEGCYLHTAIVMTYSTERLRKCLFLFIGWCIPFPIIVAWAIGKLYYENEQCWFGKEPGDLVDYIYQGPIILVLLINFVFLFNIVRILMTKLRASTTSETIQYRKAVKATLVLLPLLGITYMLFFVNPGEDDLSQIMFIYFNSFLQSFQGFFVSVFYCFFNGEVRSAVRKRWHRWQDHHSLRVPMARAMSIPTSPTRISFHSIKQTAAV
T4 sequence (P24387 whole entry): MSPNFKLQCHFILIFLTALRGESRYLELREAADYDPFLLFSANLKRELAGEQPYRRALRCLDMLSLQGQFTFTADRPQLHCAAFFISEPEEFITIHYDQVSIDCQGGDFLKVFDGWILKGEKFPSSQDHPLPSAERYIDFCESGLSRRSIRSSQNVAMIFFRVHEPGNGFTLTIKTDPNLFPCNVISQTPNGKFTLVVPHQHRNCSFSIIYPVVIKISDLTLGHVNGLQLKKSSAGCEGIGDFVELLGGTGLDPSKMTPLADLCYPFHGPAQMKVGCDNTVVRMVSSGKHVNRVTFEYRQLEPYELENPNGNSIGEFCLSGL

[7] = biological target: T4, Corticotropin-releasing factor receptor 2/Corticotropin-releasing factor-binding protein; test: activators of CRF receptor 2 with binding protein – uHTS hits, confirmation (AID 602473); type: functional; settings: read-out: EC50_Mean
[8] = CRF-BP/CRF-R2 complex antagonists, dose response, cell-based, uHTS hits, 384-well (AID 651639); type: functional, Homo sapiens; settings: read-out: IC50_Mean
Beta-galactosidase = Beta-galactosidase (Escherichia coli, UniProt Q8VNN2); test: Dose response counterscreen for EBI2 assay utilizing the enzyme, b-galactosidase.; type: functional
Chain of Beta-galactosidase (Q8VNN2 whole entry): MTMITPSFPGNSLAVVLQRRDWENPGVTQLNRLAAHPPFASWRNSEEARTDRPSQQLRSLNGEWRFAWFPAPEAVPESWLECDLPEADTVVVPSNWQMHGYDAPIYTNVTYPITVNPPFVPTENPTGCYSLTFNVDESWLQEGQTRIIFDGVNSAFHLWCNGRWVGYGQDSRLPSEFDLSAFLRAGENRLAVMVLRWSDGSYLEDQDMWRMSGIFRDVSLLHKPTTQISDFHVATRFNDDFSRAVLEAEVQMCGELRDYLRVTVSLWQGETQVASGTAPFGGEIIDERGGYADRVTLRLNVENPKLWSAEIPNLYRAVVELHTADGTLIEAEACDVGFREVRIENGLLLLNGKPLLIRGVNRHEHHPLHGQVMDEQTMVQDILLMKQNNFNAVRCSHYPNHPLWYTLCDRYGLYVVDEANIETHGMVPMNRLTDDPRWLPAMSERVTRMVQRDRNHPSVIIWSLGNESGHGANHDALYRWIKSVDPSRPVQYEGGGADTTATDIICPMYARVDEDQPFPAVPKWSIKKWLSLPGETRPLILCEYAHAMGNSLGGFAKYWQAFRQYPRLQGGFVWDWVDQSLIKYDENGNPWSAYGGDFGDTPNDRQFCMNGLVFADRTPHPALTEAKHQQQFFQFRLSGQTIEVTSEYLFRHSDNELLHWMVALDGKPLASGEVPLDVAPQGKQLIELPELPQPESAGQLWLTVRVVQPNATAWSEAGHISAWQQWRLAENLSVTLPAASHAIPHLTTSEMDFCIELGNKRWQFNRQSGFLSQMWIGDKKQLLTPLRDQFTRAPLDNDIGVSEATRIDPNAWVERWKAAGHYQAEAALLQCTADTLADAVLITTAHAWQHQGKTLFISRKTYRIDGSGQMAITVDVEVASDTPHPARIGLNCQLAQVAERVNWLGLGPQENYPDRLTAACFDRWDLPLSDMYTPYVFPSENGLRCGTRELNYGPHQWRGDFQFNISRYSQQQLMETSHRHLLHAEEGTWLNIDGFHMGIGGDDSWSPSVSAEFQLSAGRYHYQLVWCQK

## CC(C)C1Oc2ccccc2N(CC(=O)N(Cc2ccccn2)C2CC2)C1=O (configuration not stated)
[1]
  IC50: > 109 µM (inactive)
[2]
  IC50: > 83.3 µM (inactive)

## CCN1c2ccccc2-c2nc3ccccc3n2C1c1ccccn1 (configuration not stated)
Kallikrein-7
  EC50: > 69.5 µM (inactive)

## CC1=NN(c2nc(-c3ccc(F)cc3)cs2)C(=O)C1
[3]
  AC50: 7.23 µM (active)
[4]
  AC50: 32 µM (inactive)

## Cc1cccc(NC(=O)CN2C(=O)S/C(=C\c3ccc(O)c([N+](=O)[O-])c3)C2=O)c1
[5]
  IC50: 3.43 µM (active)
[4]
  AC50: 0.102 µM (active)

## CCc1nnc(NS(=O)(=O)c2ccc(NC(=O)Nc3ccc(OC)cc3)cc2)s1
[4]
  AC50: 73.5 µM (active)

## COC(=O)CC1=C(C(=O)OC)[C@@H](c2ccccc2[N+](=O)[O-])C(C#N)=C(N)O1
Kallikrein-7
  EC50: 8.2 µM (active)

## CCn1c(SCC(=O)NCc2ccco2)nnc1-c1cccs1
Protein Tat
  IC50: > 100 µM (active)

## Cc1ccc(N2CCN(c3ccc(C)cc3)C2c2ccccn2)cc1
Protein Tat
  IC50: > 100 µM (active)

## O=c1c2ccccc2nc(/C=C/c2ccc(O)cc2)n1-c1ccc(O)cc1
H9c2
  IC50: > 79 µM (inactive)
Kallikrein-7
  EC50: 21.7 µM (inactive)

## Cc1nc(Sc2ccccc2)c(C#N)cc1-c1ccccc1
[6]
  IC50: < 0.368 µM (active)
[7]
  EC50: > 53 µM (inactive)
[8]
  IC50: > 20 µM (inactive)

## COc1ccc(N2CCN(C(=O)c3cc(=O)c4cc(C)cc(C)c4o3)CC2)cc1
Beta-galactosidase
  IC50: > 80 µM (inactive)
